Reference: patent publication US7795307B2, “Carbamoyl esters that inhibit cholinesterase and release pharmacologically active agents” (priority 2003, dated 2010)

Experiments:
[1] = molecular target: human recombinant acetylcholinesterase (Homo sapiens, UniProt P22303); assay: biochemical; conditions: 25° C., 30 minutes preincubation, 0.3 mM acetylthiocholine, Dixon plot
[2] = system: total cholinesterase activity in the brain; assay: Total cholinesterase activity in brain homogenate of rats after i.p. injection; format: in vivo, Male Wistar rats; conditions: for ChE inhibition: brain 3 hours after injection, relative to saline treated rats; for tolerability of the injected dose: i.p., male Wistar rats, dose giving a cholinergic behavioral effect with minimal side effects
Protocol: Animals were decapitated 3 hours after injection and the brains rapidly removed. The brain tissue was diced into small pieces, placed on ice and immediately homogenized with a Polytron PT1200 (Kinematic AG) in 10 ml ice cold Tris with 0.1% Triton-X and protease inhibitors. The protease inhibitors in the extraction buffer were Antipain (10 μM), Aprotinin (5 TIU/mg protein), Bestatin ([…]), Leupeptin (10 μM) and Pepstatin (1 μM). The final dilution of the homogenate in the final assay mixture was 120-fold.
Total cholinesterase activity was determined by a modification of the colorimetric method of Ellmann, et al. (Biochem. Pharmacol., 7:88-95 (1961)), as described above. Hydrolysis of acetylthiocholine was monitored indirectly by measurement of the formation of the conjugate between thiocholine and DTNB. Optical density at 405 nm was recorded during five (5) minutes employinga a microplate spectrophotometer (Polarstar, BMG Labtech), and plotted against time. The initial rates were calculated from the slope of the linear portion of the graph.
Cholinesterase activity was normalized for protein content of the homogenate. Relative cholinesterase activity was calculated as the ratio of normalized cholinesterase activity in a rat treated with a control compound or a carbamoyl ester over normalized cholinesterase activity in saline treated rats.

Chain of human recombinant acetylcholinesterase (P22303 32-614): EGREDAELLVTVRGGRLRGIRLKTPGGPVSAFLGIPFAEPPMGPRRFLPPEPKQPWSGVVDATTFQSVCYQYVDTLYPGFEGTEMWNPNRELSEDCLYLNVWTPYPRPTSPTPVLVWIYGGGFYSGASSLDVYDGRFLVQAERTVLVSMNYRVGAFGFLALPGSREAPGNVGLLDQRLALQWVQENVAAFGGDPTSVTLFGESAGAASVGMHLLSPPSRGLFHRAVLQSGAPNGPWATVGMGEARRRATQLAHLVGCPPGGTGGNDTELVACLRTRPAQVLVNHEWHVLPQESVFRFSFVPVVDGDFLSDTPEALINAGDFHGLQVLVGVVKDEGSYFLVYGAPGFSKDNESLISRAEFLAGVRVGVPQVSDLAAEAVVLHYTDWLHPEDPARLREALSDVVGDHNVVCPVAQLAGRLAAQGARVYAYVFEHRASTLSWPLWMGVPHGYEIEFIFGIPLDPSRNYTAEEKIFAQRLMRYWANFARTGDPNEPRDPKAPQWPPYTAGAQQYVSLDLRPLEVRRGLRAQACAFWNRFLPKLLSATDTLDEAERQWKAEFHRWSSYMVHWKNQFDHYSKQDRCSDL

SMILES: Cc1ccccc1O[C@H](CCN(C)C(=O)Oc1cccc([C@H](C)N(C)C)c1)c1ccccc1 [Compound 5]
- IC50 [1]: 460 nM

SMILES: C[C@H](Cc1ccccc1)N(C)C(=O)Oc1cccc([C@H](C)N(C)C)c1 [Compound 7]
- ChE inhibition ([2]; 2 mg/kg i.p.): 38%
- tolerability of the injected dose [2]: well-tolerated

SMILES: C[C@H](Cc1ccccc1)NC(=O)Oc1cccc([C@H](C)N(C)C)c1 [Compound 9]
- ChE inhibition ([2]; 8 mg/kg i.p.): 41%
- tolerability of the injected dose [2]: well-tolerated

SMILES: C[C@H](Cc1ccccc1)N(C)C(=O)Oc1ccc2c(c1)[C@]1(C)CCN(C)[C@@H]1N2C [Compound 13]
- IC50 [1]: 5440 nM

SMILES: C[C@H](Cc1ccccc1)NC(=O)Oc1ccc2c(c1)[C@]1(C)CCN(C)[C@@H]1N2C [Compound 14]
- IC50 [1]: 253 nM

SMILES: C[C@@H](Cc1ccccc1)NC(=O)Oc1cccc([C@H](C)N(C)C)c1 [Compound 20]
- IC50 [1]: 449 nM

SMILES: CCN(C)C(=O)Oc1cccc([C@H](C)N(C)C)c1 [Rivastigmine, reference compound]
- tolerability of the injected dose [2]: well-tolerated
